Source: PubChem BioAssay AID2060492 (Molecular Pharmacology Branch, DTP, NCI, 2025)

Tested on: 695427-040-R-J1-PDC complex spheroids, viability percent T/C
Assay: Anticancer human tumor 695427-040-R-J1-PDC patient-derived colon adenocarcinoma cell line growth inhibition [GQUAD]
Conditions: for IC50: curve of first compound; for viability, T/C: stronger effect = lower value; active = viability on the fitted dose curve at most 10% of control; inactive = the rest
In short: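 Tumor cells were grown as complex spheroids with HUVEC endothelial cells and mesenchymal stem cells as stroma. G-quadruplex stabilizers were combined with targeted agents over half-log dilutions from near the clinical Cmax, or from 10 microM.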

[1] = second compound 0.0316 µM, first compound 0.0316 µM
[2] = second compound 0.0316 µM, first compound 0.316 µM
[3] = second compound 0.1 µM, first compound 0.0316 µM
[4] = second compound 0.1 µM, first compound 0.316 µM
[5] = second compound 0.316 µM, first compound 0.0316 µM
[6] = second compound 0.316 µM, first compound 0.316 µM
[7] = second compound 1 µM, first compound 0.0316 µM
[8] = second compound 1 µM, first compound 0.316 µM
[9] = second compound 3.16 µM, first compound 0.0316 µM
[10] = second compound 3.16 µM, first compound 0.316 µM
[11] = second compound 10 µM, first compound 0.0316 µM
[12] = second compound 10 µM, first compound 0.316 µM
[13] = second compound 0.0316 µM, first compound 0.1 µM
[14] = second compound 0.0316 µM, first compound 1 µM
[15] = second compound 0.0316 µM, first compound 3.16 µM
[16] = second compound 0.0316 µM, first compound 10 µM
[17] = second compound 0.1 µM, first compound 0.1 µM
[18] = second compound 0.1 µM, first compound 1 µM
[19] = second compound 0.1 µM, first compound 3.16 µM
[20] = second compound 0.1 µM, first compound 10 µM
[21] = second compound 0.316 µM, first compound 0.1 µM
[22] = second compound 0.316 µM, first compound 1 µM
[23] = second compound 0.316 µM, first compound 3.16 µM
[24] = second compound 0.316 µM, first compound 10 µM
[25] = second compound 1 µM, first compound 0.1 µM
[26] = second compound 1 µM, first compound 1 µM
[27] = second compound 1 µM, first compound 3.16 µM
[28] = second compound 1 µM, first compound 10 µM
[29] = second compound 3.16 µM, first compound 0.1 µM
[30] = second compound 3.16 µM, first compound 1 µM
[31] = second compound 3.16 µM, first compound 3.16 µM
[32] = second compound 3.16 µM, first compound 10 µM
[33] = second compound 10 µM, first compound 0.1 µM
[34] = second compound 10 µM, first compound 1 µM
[35] = second compound 10 µM, first compound 3.16 µM
[36] = second compound 10 µM, first compound 10 µM
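Also: spheroids exposed to compounds for seven days before readout.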

Cn1ncnc1[C@H]1c2n[nH]c(=O)c3cc(F)cc(c23)N[C@@H]1c1ccc(F)cc1 + Cc1[nH]c2ccc(F)cc2c1-c1nc2c3cccnc3c3ncccc3c2[nH]1
inactive: viability, T/C (second compound 0.0316 µM, first compound 0.000999 µM) 98.9% | viability, T/C (second compound 0.0316 µM, first compound 0.00316 µM) 86.2% | viability, T/C (second compound 0.0316 µM, first compound 0.00999 µM) 98.2% | viability, T/C [1] 103% | viability, T/C (second compound 0.0316 µM, first compound 0.0999 µM) 104% | viability, T/C [2] 66.6% | viability, T/C (second compound 0.1 µM, first compound 0.000999 µM) 99.1% | viability, T/C (second compound 0.1 µM, first compound 0.00316 µM) 93.8% | viability, T/C (second compound 0.1 µM, first compound 0.00999 µM) 82% | viability, T/C [3] 79.8% | viability, T/C (second compound 0.1 µM, first compound 0.0999 µM) 97.8% | viability, T/C [4] 66.8% | viability, T/C (second compound 0.316 µM, first compound 0.000999 µM) 99.7% | viability, T/C (second compound 0.316 µM, first compound 0.00316 µM) 84.7% | viability, T/C (second compound 0.316 µM, first compound 0.00999 µM) 91.4% | viability, T/C [5] 89.1% | viability, T/C (second compound 0.316 µM, first compound 0.0999 µM) 103% | viability, T/C [6] 81.9% | viability, T/C (second compound 1 µM, first compound 0.000999 µM) 97.4% | viability, T/C (second compound 1 µM, first compound 0.00316 µM) 68.8% | viability, T/C (second compound 1 µM, first compound 0.00999 µM) 87.5% | viability, T/C [7] 91.3% | viability, T/C (second compound 1 µM, first compound 0.0999 µM) 96.1% | viability, T/C [8] 68.2% | viability, T/C (second compound 3.16 µM, first compound 0.000999 µM) 76.8% | viability, T/C (second compound 3.16 µM, first compound 0.00316 µM) 87% | viability, T/C (second compound 3.16 µM, first compound 0.00999 µM) 85.3% | viability, T/C [9] 79.9% | viability, T/C (second compound 3.16 µM, first compound 0.0999 µM) 83.7% | viability, T/C [10] 86% | viability, T/C (second compound 10 µM, first compound 0.000999 µM) 70.9% | viability, T/C (second compound 10 µM, first compound 0.00316 µM) 56.1% | viability, T/C (second compound 10 µM, first compound 0.00999 µM) 88.3% | viability, T/C [11] 80.5% | viability, T/C (second compound 10 µM, first compound 0.0999 µM) 82.7% | viability, T/C [12] 74.3%
> 316 nM: IC50 (second compound 0.0316 µM) | IC50 (second compound 0.1 µM) | IC50 (second compound 0.316 µM) | IC50 (second compound 1 µM) | IC50 (second compound 3.16 µM) | IC50 (second compound 10 µM)

O=C(NO)c1cnc(N2CCN(S(=O)(=O)c3ccc4ccccc4c3)CC2)nc1 + Cc1[nH]c2ccc(F)cc2c1-c1nc2c3cccnc3c3ncccc3c2[nH]1
> 10000 nM: IC50 (second compound 0.0316 µM) | IC50 (second compound 0.1 µM) | IC50 (second compound 0.316 µM) | IC50 (second compound 1 µM) | IC50 (second compound 3.16 µM) | IC50 (second compound 10 µM)
inactive: viability, T/C [1] 90.4% | viability, T/C [13] 106% | viability, T/C [2] 94.3% | viability, T/C [14] 87.5% | viability, T/C [15] 78.7% | viability, T/C [16] 74.7% | viability, T/C [3] 98.4% | viability, T/C [17] 91.1% | viability, T/C [4] 83% | viability, T/C [18] 87% | viability, T/C [19] 81.3% | viability, T/C [20] 68.5% | viability, T/C [5] 99.1% | viability, T/C [21] 89.4% | viability, T/C [6] 81.9% | viability, T/C [22] 82.6% | viability, T/C [23] 80.5% | viability, T/C [24] 65.6% | viability, T/C [7] 95% | viability, T/C [25] 86% | viability, T/C [8] 84.8% | viability, T/C [26] 82% | viability, T/C [27] 77.9% | viability, T/C [28] 61.5% | viability, T/C [9] 76.5% | viability, T/C [29] 71.2% | viability, T/C [10] 71.2% | viability, T/C [30] 73.5% | viability, T/C [31] 57.3% | viability, T/C [32] 54.5% | viability, T/C [11] 69.6% | viability, T/C [33] 73.1% | viability, T/C [12] 73.8% | viability, T/C [34] 60.5% | viability, T/C [35] 54.3% | viability, T/C [36] 50.5%

CCCS(=O)(=O)Nc1ccc(F)c(C(=O)c2c[nH]c3ncc(-c4ccc(Cl)cc4)cc23)c1F + CN(C)c1ccc(Nc2c3ccc(NC(=O)CCN4CCCC4)cc3nc3cc(NC(=O)CCN4CCCC4)ccc23)cc1
> 10000 nM: IC50 (second compound 0.0316 µM) | IC50 (second compound 0.1 µM) | IC50 (second compound 0.316 µM) | IC50 (second compound 1 µM) | IC50 (second compound 3.16 µM) | IC50 (second compound 10 µM)
inactive: viability, T/C [1] 108% | viability, T/C [13] 99.9% | viability, T/C [2] 106% | viability, T/C [14] 106% | viability, T/C [15] 122% | viability, T/C [16] 68.1% | viability, T/C [3] 103% | viability, T/C [17] 94.5% | viability, T/C [4] 104% | viability, T/C [18] 109% | viability, T/C [19] 111% | viability, T/C [20] 65.9% | viability, T/C [5] 105% | viability, T/C [21] 108% | viability, T/C [6] 101% | viability, T/C [22] 106% | viability, T/C [23] 123% | viability, T/C [24] 68.3% | viability, T/C [7] 98.7% | viability, T/C [25] 99.3% | viability, T/C [8] 107% | viability, T/C [26] 119% | viability, T/C [27] 121% | viability, T/C [28] 64.2% | viability, T/C [9] 91% | viability, T/C [29] 103% | viability, T/C [10] 94.5% | viability, T/C [30] 100% | viability, T/C [31] 110% | viability, T/C [32] 72.4% | viability, T/C [11] 86.6% | viability, T/C [33] 89.3% | viability, T/C [12] 90.9% | viability, T/C [34] 91.2% | viability, T/C [35] 90% | viability, T/C [36] 67.5%

CC1COCCN1c1cc(C2(O)CC3CCC(C2)O3)c2cnn(-c3ccn[nH]3)c2n1 (stereo not drawn) + CN(C)c1ccc(Nc2c3ccc(NC(=O)CCN4CCCC4)cc3nc3cc(NC(=O)CCN4CCCC4)ccc23)cc1
2270 nM: IC50 (second compound 1 µM)
1540 nM: IC50 (second compound 3.16 µM)
873 nM: IC50 (second compound 10 µM)
2040 nM: IC50 (second compound 0.1 µM)
inactive: viability, T/C [1] 105% | viability, T/C [13] 79.7% | viability, T/C [2] 73.6% | viability, T/C [14] 55.5% | viability, T/C [15] 48% | viability, T/C [16] 39.6% | viability, T/C [3] 100% | viability, T/C [17] 81.9% | viability, T/C [4] 69.4% | viability, T/C [18] 57.2% | viability, T/C [19] 45.4% | viability, T/C [20] 38.1% | viability, T/C [5] 89.3% | viability, T/C [21] 87.1% | viability, T/C [6] 70.3% | viability, T/C [22] 57.4% | viability, T/C [23] 46.4% | viability, T/C [24] 39% | viability, T/C [7] 91.3% | viability, T/C [25] 80.7% | viability, T/C [8] 67.1% | viability, T/C [26] 53.9% | viability, T/C [27] 50.9% | viability, T/C [28] 38.6% | viability, T/C [9] 81.9% | viability, T/C [29] 78.1% | viability, T/C [10] 69.9% | viability, T/C [30] 51.8% | viability, T/C [31] 46.1% | viability, T/C [32] 37.5% | viability, T/C [11] 83.9% | viability, T/C [33] 78.2% | viability, T/C [12] 66.9% | viability, T/C [34] 46.4% | viability, T/C [35] 41.2% | viability, T/C [36] 35.5%
2300 nM: IC50 (second compound 0.0316 µM)
2010 nM: IC50 (second compound 0.316 µM)
